Experimental data: patent US20190008810A1, “METHOD FOR PREVENTION, TREATMENT AND ALLEVIATION OF INFECTIOUS DISEASES AND DISORDERS” (REPLICON HEALTH OY, priority 2016, published 2019)
Read-outs that look alike come from different tables or passages of the source.

Columns and labels:
[1] = test system: rat primary optic nerve astrocytes; experiment: ROS generation (CellROX Green) in rat primary optic nerve astrocytes, Example 2; type: cell-based; conditions: 14 μM
Experimental: For proving the efficacy of DGA Activation in reducing ROS in infectious disorders an in vitro study using rat primary optic nerve astrocytes has been conducted. […] As an important part of the study the cell viability was estimated 6 hours after tBHP administration by two methods, i.e. LDH and MTT assays. Cell viability was measured using the in-house MTT assay (of Experimentica Ltd., Finland) and CytoTox96 non-radioactive cytotoxicity assay (G1780, Promega) in response to oxidative stress primary optic nerve astrocytes. The production of reactive oxygen species (ROS) was measured using CellROX Green (Invitrogen) and isolate RNA in RNALater solution (Ambion). Primary optical nerve astrocytes where obtained from 4-week-old male Wister rats (6 animals' altogether) and where cultured to obtain sufficient amount of cells for the experiment. In the experiment cells where plated at 5000 cells per well and allowed to adhere for 24 hrs prior to the administration of compounds for 48 hrs (replenished every 24 hrs). After 24 hrs the compounds were removed, and readded with new medium for 1 hr, prior to the administration of 85 μM tBHP (FIG. 3c). MTT and LDH assay were performed after 6 hrs and ROS detection using CellROX green was performed over a time course of 4 hrs. D-glyceric acid was mixed into the medium in beforehand in soluble calcium salt format (DGAcs). After mixing the calcium is liberated to the medium from the D-glyceric acid. D-glycerate is formed.

[2] = test system: severe IBD; type: in vivo, human
From the text: During the year following acute bowels infection and inflammation described in above (Example 1 e) they were placed by a specialist MD into queue for demanding operation to remove inflammation prone part from their bowels. While waiting for this operation (roughly a year from above described previous serious bowels inflammation (IBD)) S4 got serious IBD again. This happened as a follow up of two-week business trip during which the diet was not at all optimal and working was rather intensive.
By Saturday the symptoms were so severe that S4 could not walk properly. It was decided that […] rests for the weekend and goes to a doctor on Monday morning.
Because based on Example 1 e it is already known that the DGA Activation can efficiently reduce IBD in S4, it was decided that S4 starts using DGA immediately to reduce the inflammation. (Also, all other information presented in this application, including all other experiments and dose response analyses were available already, except for Example 1 g.) Initial dose was set relatively high because the inflammation was very severe and because it is known from all other experiments that there were no negative effects for S4 from the DGA Activation. 3×200 mg mixed into 2 dl of water was taken 3 times during Saturday, first dose at 0300 pm, next dose 2 hours thereafter and the last dose 4 hours after the second dose, i.e. at 0900 pm. Inflammatory symptoms remained high but fever reduced from 36.80 Celsius (before DGA activation) to 36.03 by 0939 pm. Paracetamol (1000 mg) was taken after the last fever measurement thus not affecting the decline. Another paracetamol was taken earlier the day at 0346 pm.

[3] = test system: intraocular pressure; experiment: Intraocular pressure (IOP) in glaucoma, S1; type: in vivo, human
From the text: FIG. 12: Numerical values of the reduction in IOP in Glaucoma after DGA Administration.
The same seems to be true for the efficacy of glaucoma therapy in FIG. 12.

[4] = test system: ethanol-dosed gastric cells; conditions: in vitro study, Habe et al.; cited from earlier work
[5] = test system: IPA mice (conjunctival epithelium, lacrimal gland, goblet cells); experiment: Intensified pathological attack (IPA) dry eye model in mice, Example 1a; type: in vivo; conditions: for decrease in the thickening of the conjunctiva compared to relevant control: 7-day IPA, statistically significant
Experimental: In this experiment, intensified pathological attacks towards the eye epithelium is used as a disease model for intensified infectious pressure. The protection of the DGA Activation is measured by inflammatory markers. Because the conjunctival epithelium faces outside environment, the conjunctiva was chosen as one important biomarker. In the following this dry eye disease (also known as keratoconjunctivitis sicca) model experiment is called as the intensified pathological attack model or IPA-model.
All animal experiments were carried out according to the Association for Research in Vision and Ophthalmology and the National Institute of Health (NIH) guidelines for the care and use of laboratory animals. The intensified pathological attack model (IPA-model) was induced to naïve seven-to-ten-week-old C57B1/B6J mice obtained from the vivarium at the University of Eastern Finland. In the experiment 4 cohorts of mice were tested, naïve wild-type mice with IPA (n=5), and IPA mice treated topically with either vehicle (n=5) or (topical) DGA (n=5), and additionally IPA treated mice with orally administered DGA with topical vehicle treatment (n=5). IPA was induced by a combination of scopolamine and exposure to a controlled adverse environment (low humidity, high temperature and high airflow for a period of 7 days) in the IPA-mice system. More detailed treatment and administrations were as follows: Group 1: Non-treated IPA mice, Group 2: IPA mice (topical application of PBS to one eye, the contralateral eye served as control), Group 3: IPA mice topical treatment with DGA (aqueous formulation to one eye, contralateral eye served as control), Group 4: IPA mice—systemic treatment with DGA (ad libitum with chow; topical application of PBS to one eye, the contralateral eye served as control).
The DGA Activation was induced be D-glyceric acid (in its calcium salt form). In the systemic administration, the DGA was mixed into chow ad libitum at the concentration of: 1) 65 mg/kg/day for the first 4 days, and at day 5 at the concentration of 130 mg/kg/day prior the dry-eye induction; 2) thereafter the concentration was 130 mg/kg/day for the whole follow-up period of 7 days. In the topical treatment, the DGA was administered topically, as aqueous formulation in PBS. […]
Tear volume was measured for groups 3 and 4 and later comparison results for group 2 were received. […] In addition, animals were monitored daily for general health status. The lacrimal glands were embedded into paraffin, sectioned, stained and analyzed for possible pathology.

O=C(O)[C@H](O)CO [DGA, D-glyceric acid]
ROS generation vs 0-controls ([1]; 0 tBHP (healthy conditions)): lower
increase of average ROS generation in 15 minutes, tBHP group compared to without tBHP ([1]; 85 μM tBHP, 0 min to 15 min, control approximately 20%): approximately 30%
ROS level vs control groups ([1]; 15, 30 and 60 minutes after bolus 85 μM tBHP): statistically significantly lower
time to restoring defecation ([2]; S4): 12 to 16 h
Blood CRP ([2]; S4, Friday 1100 am): 11
CRP level ([2]; S4, Monday 0030 pm, 3×200 mg four times a day): 85
fever ([2]; S4, Saturday 0939 pm after 3 doses of 3×200 mg, 36.80 before): 36.03 Celsius
fever ([2]; S4, Sunday 0115 pm, normal 36.1): 35.83
fever ([2]; S4, Sunday 0145): 36.16
CRP ([2]; S4, Wednesday noon, without antibiotics): 22
side effects ([2]; in vivo): did not cause any side effects
IOP reduction, sufficiency of acute dose ([3]; acute dose 1*200 mg): not necessarily sufficient
IOP compared to relevant control measurement ([3]; first measurement under the full DGA Activation): very significant reduction in IOP
viability of ethanol-dosed gastric cells [4]: can increase viability of ethanol-dosed gastric cells
number of goblet cells vs 0-controls ([5]; DGA activation groups vs 0-controls): No meaningful differences
lacrimal gland pathology (inflammation) ([5]; systemic (group 4) vs placebo 0-control): reduces inflammation statistically significantly
decrease in the thickening of the conjunctiva compared to relevant control ([5]; systemic, mixed with chow 130 mg/kg/day): ~20%
decrease in the thickening of the conjunctiva compared to relevant control ([5]; topical eye drops 30 μg/ml, 5 μL 4× daily): ~20%
